According to article PMC3701070 (PLoS ONE, 2013):

What was measured:
Assay in all cases: Cell growth assay
Format in all cases: cell-based
[1] = system: 22Rv1; conditions: Homo sapiens, 72 h; 22Rv1, RAF WT, RAS WT, 3-day; read-out: gIC50
Experimental: (§1) Growth was measured with CellTiter-Glo® (Promega) reagent per the manufacturer’s protocol, using a PerkinElmer EnVision™ reader at t = 0 and 72 h. IC50 values for cell growth inhibition (gIC50) were determined.
(§2) (PDF) Click here for additional data file.

[2] = system: 647-V; conditions: Homo sapiens, 72 h, RAF WT, RAS WT, 3-day, read-out: gIC50
Experimental: as §1, §2

[3] = system: A172; conditions: Homo sapiens, A 172, 72 h; A172, RAF WT, RAS WT, 3-day; read-out: gIC50
Experimental: as §1, §2

[4] = system: A204; conditions: Homo sapiens, 72 h; A204, RAF WT, RAS WT, 3-day; read-out: gIC50
Experimental: as §1, §2

[5] = system: BC-1; conditions: Homo sapiens, BC1, 72 h; BC-1, RAF WT, RAS WT, 3-day; read-out: gIC50
Experimental: as §1, §2

[6] = system: BC-3; conditions: Homo sapiens, 72 h; BC-3, RAF WT, RAS WT, 3-day; read-out: gIC50
Experimental: as §1, §2

[7] = system: C3A; conditions: Homo sapiens, 72 h, RAF WT, RAS WT, 3-day, read-out: gIC50
Experimental: as §1, §2

[8] = system: CEM/C1; conditions: Homo sapiens, 72 h; CEM/C1, RAF WT, RAS WT, 3-day; read-out: gIC50
Experimental: as §1, §2

[9] = system: Calu-3; conditions: Homo sapiens, 72 h; Calu-3, RAF WT, RAS WT, 3-day; read-out: gIC50
Experimental: as §1, §2

[10] = system: Colo320DM; conditions: Homo sapiens, COLO 320DM, 72 h, RAF WT, RAS WT, 3-day, read-out: gIC50
Experimental: as §1, §2

[11] = system: DU-145; conditions: Homo sapiens, 72 h; DU-145, RAF WT, RAS WT, 3-day; read-out: gIC50
Experimental: as §1, §2

[12] = system: MDA-MB-175 VII; conditions: Homo sapiens, 72 h, RAF WT, RAS WT, 3-day, read-out: gIC50
Experimental: as §1, §2

[13] = system: NCI-H1563; conditions: Homo sapiens, 72 h; NCI-H1563, RAF WT, RAS WT, 3-day; read-out: gIC50
Experimental: as §1, §2

[14] = system: NCI-H2030; conditions: Homo sapiens, 72 h; NCI-H2030, RAF WT, RAS WT, 3-day; read-out: gIC50
Experimental: as §1, §2

[15] = system: NCI-H2122; conditions: Homo sapiens, 72 h; NCI-H2122, RAF WT, RAS WT, 3-day; read-out: gIC50
Experimental: as §1, §2

[16] = system: NCI-H630; conditions: Homo sapiens, 72 h; NCI-H630, RAF WT, RAS WT, 3-day; read-out: gIC50
Experimental: as §1, §2

[17] = system: OE-19; conditions: Homo sapiens, OE19, 72 h; OE-19, RAF WT, RAS WT, 3-day; read-out: gIC50
Experimental: as §1, §2

[18] = system: OVCAR-3; conditions: Homo sapiens, 72 h; OVCAR-3, RAF WT, RAS WT, 3-day; read-out: gIC50
Experimental: as §1, §2

[19] = system: SCC-25; conditions: Homo sapiens, 72 h; SCC-25, RAF WT, RAS WT, 3-day; read-out: gIC50
Experimental: as §1, §2

[20] = system: SH-4; conditions: Homo sapiens, 72 h; SH-4, BRAF(V600E), RAS WT, 3-day; read-out: gIC50
Experimental: as §1, §2

[21] = system: SK-N-AS; conditions: Homo sapiens, 72 h, RAF WT, NRAS(Q61K), 3-day, read-out: gIC50
Experimental: as §1, §2

[22] = system: SKOV-3; conditions: Homo sapiens, SK-OV-3, 72 h; SKOV-3, RAF WT, RAS WT, 3-day; read-out: gIC50
Experimental: as §1, §2

[23] = system: SN12C; conditions: Homo sapiens, 72 h, RAF WT, RAS WT, 3-day, read-out: gIC50
Experimental: as §1, §2

[24] = system: SNU-16; conditions: Homo sapiens, 72 h; SNU-16, RAF WT, RAS WT, 3-day; read-out: gIC50
Experimental: as §1, §2

[25] = system: SNU-5; conditions: Homo sapiens, 72 h; SNU-5, RAF WT, RAS WT, 3-day; read-out: gIC50
Experimental: as §1, §2

[26] = system: SW1088; conditions: Homo sapiens, 72 h; SW1088, RAF WT, RAS WT, 3-day; read-out: gIC50
Experimental: as §1, §2

[27] = system: SW1417; conditions: Homo sapiens, 72 h; SW1417, BRAF(V600E), RAS WT, 3-day; read-out: gIC50
Experimental: as §1, §2

[28] = system: SW1990; conditions: Homo sapiens, 72 h; SW1990, RAF WT, RAS WT, 3-day; read-out: gIC50
Experimental: as §1, §2

[29] = system: SW756; conditions: Homo sapiens, 72 h; SW756, RAF WT, KRAS(G12C), 3-day; read-out: gIC50
Experimental: as §1, §2

[30] = system: TE381.T; conditions: Homo sapiens, TE 381.T, 72 h, RAF WT, RAS WT, 3-day, read-out: gIC50
Experimental: as §1, §2

[31] = system: U251; conditions: Homo sapiens, U-251, 72 h; U251, RAF WT, RAS WT, 3-day; read-out: gIC50
Experimental: as §1, §2

[32] = system: ZR-75-1; conditions: Homo sapiens, 72 h; ZR-75-1, RAF WT, RAS WT, 3-day; read-out: gIC50
Experimental: as §1, §2

Question: `CC(C)(C)c1nc(-c2cccc(NS(=O)(=O)c3c(F)cccc3F)c2F)c(-c2ccnc(N)n2)s1` [dabrafenib] was tested. Which IC50 [1] did it give?
Answer: The IC50 was over 10 µM.

Question: And the IC50 [2]?
Answer: Its IC50 is over 10 µM.

Question: And the IC50 [3]?
Answer: Its IC50 is over 10 µM.

Question: What about the IC50 [4] of the same compound?
Answer: Its IC50 is over 10 µM.

Question: What about the IC50 [5] of the same compound?
Answer: The IC50 was 0.704 µM.

Question: And the IC50 [6]?
Answer: Its IC50 is 0.277 µM.

Question: What about the IC50 [7] of the same compound?
Answer: Its IC50 is 5.41 µM.

Question: And the IC50 [8]?
Answer: The IC50 was 1.77 µM.

Question: And the IC50 [9]?
Answer: Its IC50 is over 10 µM.

Question: What about the IC50 [10] of the same compound?
Answer: Its IC50 is over 10 µM.

Question: And the IC50 [11]?
Answer: The IC50 was over 10 µM.

Question: What about the IC50 [12] of the same compound?
Answer: Its IC50 is over 10 µM.

Question: What about the IC50 [13] of the same compound?
Answer: The IC50 was over 10 µM.

Question: And the IC50 [14]?
Answer: The IC50 was over 10 µM.

Question: And the IC50 [15]?
Answer: Its IC50 is over 10 µM.

Question: And the IC50 [16]?
Answer: Its IC50 is over 10 µM.

Question: And the IC50 [17]?
Answer: Its IC50 is over 10 µM.

Question: And the IC50 [18]?
Answer: Its IC50 is over 10 µM.

Question: And the IC50 [19]?
Answer: The IC50 was over 10 µM.

Question: And the IC50 [20]?
Answer: Its IC50 is 0.008 µM.

Question: And the IC50 [21]?
Answer: The IC50 was over 10 µM.

Question: And the IC50 [22]?
Answer: Its IC50 is over 10 µM.

Question: What about the IC50 [23] of the same compound?
Answer: The IC50 was over 10 µM.

Question: What about the IC50 [24] of the same compound?
Answer: Its IC50 is over 10 µM.

Question: What about the IC50 [25] of the same compound?
Answer: The IC50 was over 10 µM.

Question: What about the IC50 [26] of the same compound?
Answer: The IC50 was over 10 µM.

Question: And the IC50 [27]?
Answer: Its IC50 is 0.158 µM.

Question: And the IC50 [28]?
Answer: The IC50 was over 10 µM.

Question: What about the IC50 [29] of the same compound?
Answer: Its IC50 is over 10 µM.

Question: What about the IC50 [30] of the same compound?
Answer: Its IC50 is over 10 µM.

Question: What about the IC50 [31] of the same compound?
Answer: Its IC50 is over 10 µM.

Question: What about the IC50 [32] of the same compound?
Answer: The IC50 was over 10 µM.
